# Laboratory results: US8431585B2, “Use of inhibitors of the EGFR-mediated signal transduction for the treatment of benign prostatic hyperplasia (BPH)/prostatic hypertrophy” (Boehringer Ingelheim Pharma GmbH & Co. KG, priority 2002, dated 2013)
# Marks after values point to notes of the source that are not given here.
# Test system: prostate
# Experiment: Prostate-reducing activity: prostate weight of male rats after 14-15 days of once-daily oral treatment with an EGF-R-TK inhibitor
# Assay type: in vivo
# Description: The active substance is administered once a day as a suspension through an oesophageal tube. After the test period has ended the animals are killed, their prostates are removed and weighed.
# [1] = 10 mg/kg once a day by oesophageal tube, length of treatment 14 days
# [2] = 30 mg/kg once a day by oesophageal tube, length of treatment 14 days
# [3] = 100 mg/kg once a day by oesophageal tube, length of treatment 14 days
# [4] = 10 mg/kg once a day by oesophageal tube, length of treatment 15 days
# [5] = 30 mg/kg once a day by oesophageal tube, length of treatment 15 days
# [6] = 100 mg/kg once a day by oesophageal tube, length of treatment 15 days
Compound,average absolute weight (prostate) [1],average relative weight [% of body weight] (prostate) [1],average relative weight [% of the brain] (prostate) [1],average absolute weight (prostate) [2] [g],average relative weight [% of body weight] (prostate) [2],average relative weight [% of the brain] (prostate) [2],average absolute weight (prostate) [3],average relative weight [% of body weight] (prostate) [3],average relative weight [% of the brain] (prostate) [3],average absolute weight (prostate) [4],average relative weight [% of body weight] (prostate) [4],average relative weight [% of the brain] (prostate) [4],average absolute weight (prostate) [5],average relative weight [% of body weight] (prostate) [5],average relative weight [% of the brain] (prostate) [5],average absolute weight (prostate) [6],average relative weight [% of body weight] (prostate) [6],average relative weight [% of the brain] (prostate) [6]
"CN(CC=CC(=O)Nc1cc2c(Nc3ccc(F)c(Cl)c3)ncnc2cc1OC1CCCC1)C1CC1 [compound b, 4-[(3-chloro-4-fluorophenyl)amino]-6-{[4-(N-cyclopropyl-N-methyl-amino)-1-oxo-2-buten-1-yl]amino}-7-cyclopentyloxy-quinazoline]",0.3983* g,0.1622* % of body weight,20.23* % of the brain,0.3989,0.1697 % of body weight,20.71* % of the brain,0.1848* g,0.1191* % of body weight,10.13* % of the brain,–,–,–,–,–,–,–,–,–
"CN(C)CC=CC(=O)Nc1cc2c(Nc3ccc(F)c(Cl)c3)ncnc2cc1OC[C@@H]1CCCO1 [compound c, 4-[(3-chloro-4-fluorophenyl)amino]-6-{[4-(N,N-dimethylamino)-1-oxo-2-buten-1-yl]amino}-7-[(S)-(tetrahydrofuran-2-yl)methoxy]-quinazoline]",–,–,–,–,–,–,–,–,–,0.3854* g,0.1681 % of body weight,19.67* % of the brain,0.2242* g,0.1117* % of body weight,11.50* % of the brain,0.1463* g,0.0892* % of body weight,7.63* % of the brain
